The record followed here is US20080076760A1, “2,3,4,5-TETRAHYDRO-1H-1,5-BENZODIAZEPINE DERIVATIVE AND MEDICINAL COMPOSITION” (priority 2004, published 2008).

The structures appear in SMILES notation.

Experiment [1] concerns the target human vasopressin V2 receptor (Homo sapiens, UniProt P30518). Put plainly: Receptor binding study, [3H]AVP displacement on CHO cell membranes, human V2. The settings on record: [3H]AVP displacement, CHO cell membrane, 25° C., one hour; read-out: Human V2 Ki. The procedure: Preparation of Chinese hamster ovary (Cho) cell which expresses human vasopressin receptor subtype and production of membrane sample of the cell was conducted according to the method of Tahara et al. (Br. J. Pharmacol., 125, 1463-1470, 1998).
(§1) (ii) Receptor Binding Study
In saturation binding experiment, the membrane sample and [^3H]AVP of several concentrations (0.125 nM to 4.0 nM) were mixed and incubated in microplate wells. In displacement experiment, [^3H]AVP of constant concentrations (0.5 nM to 1.0 nM) and the membrane sample were mixed with Compound A of several concentrations, and incubation was performed. Assay was performed using 50 mM of Tris-HCl (pH=7.4) (total amount: 250 μL) (buffer composition: containing […] of MgCl2 and 0.1% BSA), and incubation was performed at room temperature (25° C.) for one hour. After incubation, suck filtration was immediately performed and reaction was completed when the membrane sample was collected on a glass fiber filter fitted with the microplate. After the filter was washed with an ice-cold Tris-HCl buffer (50 mM Tris-HCl, 10 mM MgCl2, pH 7.4), radioactivity measurement was performed. Nonspecific binding was determined using nonradioactive-labeled AVP (1 μM).

In experiment [2] the target is human vasopressin V1a receptor (Homo sapiens, UniProt P37288). The experiment is described as follows: Receptor binding study, [3H]AVP displacement on CHO cell membranes, human V1a. The following applies: [3H]AVP displacement, CHO cell membrane, 25° C., one hour; read-out: Human V1a Ki. The procedure:
as §1
Assay was performed using 50 mM of Tris-HCl (pH=7.4) (total amount: 250 μL) (buffer composition: containing […] of MgCl2 and 0.1% BSA), and incubation was performed at room temperature (25° C.) for one hour. After incubation, suck filtration was immediately performed and reaction was completed when the membrane sample was collected on a glass fiber filter fitted with the microplate. After the filter was washed with an ice-cold Tris-HCl buffer (50 mM Tris-HCl, 10 mM MgCl2, pH 7.4), radioactivity measurement was performed. Nonspecific binding was determined using nonradioactive-labeled AVP (1 μM).

Sequence of human vasopressin V2 receptor (P30518 whole entry): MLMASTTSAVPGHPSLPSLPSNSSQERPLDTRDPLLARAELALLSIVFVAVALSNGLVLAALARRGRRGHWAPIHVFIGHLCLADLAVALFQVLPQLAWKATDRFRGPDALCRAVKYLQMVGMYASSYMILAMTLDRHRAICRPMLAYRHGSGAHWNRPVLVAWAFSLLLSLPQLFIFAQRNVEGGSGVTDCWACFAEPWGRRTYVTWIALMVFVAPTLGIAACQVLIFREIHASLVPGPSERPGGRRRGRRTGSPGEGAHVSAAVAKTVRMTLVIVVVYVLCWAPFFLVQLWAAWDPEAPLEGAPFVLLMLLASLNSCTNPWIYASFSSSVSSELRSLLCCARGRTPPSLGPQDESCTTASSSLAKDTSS
Sequence of human vasopressin V1a receptor (P37288 whole entry): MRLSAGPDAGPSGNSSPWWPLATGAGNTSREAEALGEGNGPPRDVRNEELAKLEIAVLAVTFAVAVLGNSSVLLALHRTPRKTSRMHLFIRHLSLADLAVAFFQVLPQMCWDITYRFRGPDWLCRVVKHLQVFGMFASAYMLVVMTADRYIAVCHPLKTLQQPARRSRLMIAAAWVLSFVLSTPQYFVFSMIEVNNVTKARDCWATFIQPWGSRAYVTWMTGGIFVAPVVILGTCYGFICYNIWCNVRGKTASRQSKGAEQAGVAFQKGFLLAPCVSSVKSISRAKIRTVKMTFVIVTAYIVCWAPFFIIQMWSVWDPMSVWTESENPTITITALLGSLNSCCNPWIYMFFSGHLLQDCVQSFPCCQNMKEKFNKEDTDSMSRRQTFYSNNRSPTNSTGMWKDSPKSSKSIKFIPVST

As to `C[C@H]1CCN(C(=O)c2ccc(-c3ccc4[nH]ccc4c3)c(OCCCCCN3CCOCC3)c2)c2ccccc2N1` [Example 69, (4S)-1-[4-(1H-indol-5-yl)-3-[[5-(4-morpholinyl)pentyl]oxy]benzoyl]-4-methyl-2,3,4,5-tetrahydro-1H-1,5-benzodiazepine], the Ki in experiment [1] came out at 17 nM; in experiment [2] it was 0.24 nM.

`C[C@H]1CCN(C(=O)c2ccc(-c3ccc4[nH]ccc4c3)c(OCCCN3CCN(C)CC3)c2)c2ccccc2N1` [Example 70, (4S)-1-[4-(1H-indol-5-yl)-3-[3-(4-methyl-1-piperazinyl)propoxy]benzoyl]-4-methyl-2,3,4,5-tetrahydro-1H-1,5-benzodiazepine]: the Ki in experiment [1] came out at 6.9 nM; in experiment [2], 0.19 nM.

Regarding `C[C@H]1CCN(C(=O)c2ccc(-c3ccc4[nH]ccc4c3)c(OCCCN3CCCCC3)c2)c2ccccc2N1` [Example 71, (4S)-1-[4-(1H-indol-5-yl)-3-[3-(1-piperidinyl)propoxy]benzoyl]-4-methyl-2,3,4,5-tetrahydro-1H-1,5-benzodiazepine], the Ki in experiment [1] was found to be 11 nM; in experiment [2] it was 0.16 nM.

Regarding `CC(=O)N1CCN(CCCOc2cc(C(=O)N3CC[C@H](C)Nc4ccccc43)ccc2-c2ccc3[nH]ccc3c2)CC1` [Example 73, (4S)-1-[3-[3-(4-acetyl-1-piperazinyl)propoxy]-4-(1H-indol-5-yl)]-4-methyl-2,3,4,5-tetrahydro-1H-1,5-benzodiazepine], the Ki in experiment [1] worked out at 4.6 nM; in experiment [2], 0.19 nM.

Turning to `CNc1ccc(-c2ccc(C(=O)N3CC[C@H](C)Nc4ccccc43)cc2OCCN2CCOCC2)cc1` [Example 74, N-methyl-4′-[[(4S)-4-methyl-2,3,4,5-tetrahydro-1H-1,5-benzodiazepin-1-yl]carbonyl]-2′-[2-(4-morpholinyl)ethoxy][1,1′-biphenyl]-4-amine], the values for the Ki in experiment [1] and in experiment [2] were 6.1 nM and 0.24 nM, respectively.

With `C[C@H]1CCN(C(=O)c2ccc(-c3ccc4[nH]ccc4c3)c(OCCCN(C)C)c2)c2ccccc2N1` [Example 78, N-[3-[2-(1H-indol-5-yl)-5-[[(4S)-4-methyl-2,3,4,5-tetrahydro-1H-1,5-benzodiazepin-1-yl]carbonyl]phenoxy]propyl]-N,N-dimethylamine], the Ki amounted to 12 nM in experiment [1] and 0.11 nM in experiment [2].

Regarding `CCCN(CCC)CCCOc1cc(C(=O)N2CC[C@H](C)Nc3ccccc32)ccc1-c1ccc2[nH]ccc2c1` [Example 79, N-[3-[2-(1H-indol-5-yl)-5-[[(4S)-4-methyl-2,3,4,5-tetrahydro-1H-1,5-benzodiazepin-1-yl]carbonyl]phenoxy]propyl]-N,N-dipropylamine], the inhibition constant Ki in experiment [1] came to 16 nM; in experiment [2] it was 0.13 nM.

Take `CC1CN(CCCOc2cc(C(=O)N3CC[C@H](C)Nc4ccccc43)ccc2-c2ccc3[nH]ccc3c2)CC(C)O1` (stereo partly drawn) [Example 80, (4S)-1-[3-[3-(2,6-dimethyl-4-morpholinyl)propoxy]-4-(1H-indol-5-yl)benzoyl]-4-methyl-2,3,4,5-tetrahydro-1H-1,5-benzodiazepine]: the values for the Ki in experiment [1] and in experiment [2] were 5.1 nM and 0.064 nM, respectively.

For the compound `CCCN(C)CCCOc1cc(C(=O)N2CC[C@H](C)Nc3ccccc32)ccc1-c1ccc2[nH]ccc2c1` [Example 81, N-[3-[2-(1H-indol-5-yl)-5-[[(4S)-4-methyl-2,3,4,5-tetrahydro-1H-1,5-benzodiazepin-1-yl]carbonyl]phenoxy]propyl]-N-methyl-N-propylamine], the Ki in experiment [1] worked out at 8 nM; in experiment [2] it was 0.17 nM.

In the case of `C[C@H]1CCN(C(=O)c2ccc(-c3ccc4[nH]ccc4c3)c(OCCCN(C)C(C)(C)C)c2)c2ccccc2N1` [Example 82, N-(tert-butyl)-N-[3-[2-(1H-indol-5-yl)-5-[[(4S)-4-methyl-2,3,4,5-tetrahydro-1H-1,5-benzodiazepin-1-yl]carbonyl]phenoxy]propyl]-N-methylamine], the Ki in experiment [1] was found to be 16 nM; in experiment [2] it was 0.16 nM.
